Tests used:
HUVECs = assay: Transcellular transport of horse radish peroxidase (HRP) across a cell monolayer on filter; format: cell-based, human
Method: Transport of horse radish peroxidase (HRP) across a cellular membrane was measured using the apparatus shown schematically in FIG. 4, with the addition of biovectors (BVS1 etc). The apparatus comprises upper and lower compartments (1, 2 respectively) separated by a filter 3 on which the cells 4 are grown. HRP and biovectors are added to the medium in the upper compartment 1, and HRP is assayed in the lower compartment 2.
Transcellular transport was determined as above for the HUVECs studies. […]

[1] = tested on: receptor located in human umbilical vein endothelial cells (HUVECS); assay: Interaction of designer peptides with FPE-labelled human cells possessing membrane receptor (fluorescence); format: binding
From the text: (§1) The following Examples illustrate the behaviour of various peptides and other molecules that promote transcellular transport of therapeutic molecules etc. These studies make use of techniques that show the interactions of molecules with receptors and cell membranes. […] The underlying theory and application of this technique is outlined in: • Wall, J., Ayoub, F. & O'Shea. P. (1995) J. Cell Sci. 108, 2673–2682 • Cladera, J. and O'Shea, P. (1998) Biophys. J. 74, 2434–2442 • Cladera, J., Martin, I., Ruysschaert, J. M. and O'Shea, P. (1999) J. Biol. Chem. 274, 29951–29959 the teaching of all of which is incorporated herein by reference.
Human umbilical endothelial cells were labelled with FPE and challenged with the indicated amounts of BVS1 peptides. […] Fluorescence was recorded at 518 nm after excitation at 490 nm.
Two separate experiments are shown and offset in the time dimension for clarity. Peptides were added as indicated by the arrows. The BVS1 peptide was added in both experiments. In the second trace, however, addition of BVS1 was preceded by the addition of 300 nM IL-8.

[2] = tested on: receptor isolated from the HUVECS plasma membrane (albumin receptor protein); assay: Interaction with purified isolated receptor reconstituted into FPE-labelled artificial membranes; format: binding, human
From the text: as §1
At the arrows, 5 μM BVS1 was added. Two separate experiments are shown and offset in the time dimension for clarity.

Caco2 cells = assay: Transcellular transport of HRP across monolayers of Caco2 cells; format: cell-based; settings: Caco2 monolayer, following treatment with 5 μM BVS1 (absence of BVS1: ca 0.001)
Method: Caco2 cells were cultured (passage 17–30) with standard methods and used at ca 21 days. Cells were plated at a density of ca. […] on Transwell® filters (2–4 μm, mean pore size).
The viability of cells for transport was assessed on the basis of the transcellular electrical resistance and values […] were assessed as viable.
Transcellular transport was determined as above for the HUVECs studies. In the absence of BVS1 transcellular transport was determined to be ca 0.001 nM min^−1.

[3] = +5 μM biovector, over baseline 0.003 nM/min^−1

For AGIGALFLGFLGAAG [BVS16], the Facilitated transport (HUVECs; [3]) was 9 X Fold.

With AVGIGALFLGFLGAAG [BVS1] the “binding to receptor (FPE fluorescence)” value ([1]; HUVECS labelled with FPE) was “clearly binds to a receptor”, the “binding to receptor after prior addition of IL-8” value ([1]; addition of BVS1 preceded by 300 nM IL-8) was “unable to bind” and the “binding to reconstituted isolated receptor (FPE fluorescence increase)” value ([2]; 5 μM BVS1) was “clearly binds to a receptor”. For the same substance, the “binding to reconstituted isolated receptor after prior addition of human serum albumin” value ([2]; 5 μM BVS1 preceded by 5 μM human serum albumin) was “unable to bind”, the Facilitated transport (HUVECs; +5 μM PSNU then +5 μM BVS1) was 3/0 and the Facilitated transport (HUVECs; [3]) was 15 X Fold. For the same substance, the transcellular transport (Caco2 cells) was 0.02 nM/min.

GVFVLGFLGFLATAGS [BVS9] was tested, and the Facilitated transport (HUVECs; [3]) was 7 X Fold.

Work on GVFVLGLFGFLA [BVS5] yielded a Facilitated transport (HUVECs; [3]) of 22 X Fold.

interleukin-8 [IL-8] was tested, and the “binding of IL-8 to the receptor targeted by BVS1” value ([1]; 300 nM IL-8) was “appears to bind”.

With “polysulfonylnaphthylurea [PSNU, reference compound]” the “interaction with reconstituted albumin receptor protein (FPE)” value ([2]; 2 μM PSNU) was “interactions take place” and the Facilitated transport (HUVECs; [3]) was 3 X Fold.

Reference: US7049295B2, “Compounds and use thereof to modify transport across cell membranes” (Biotransys Limited, priority 1999, dated 2006)
